Data from PMC6270232, “1,2,3-Triazole-Substituted Oleanolic Acid Derivatives: Synthesis and Antiproliferative Activity” (Molecules, 2013).

Columns and labels:
[1] = test system: normal lung fibroblasts (MRC-5); assay: Antiproliferative assay (MTT reduction), MRC-5; format: cell-based, human; set-up: key to Antiproliferative activity in words, MRC-5: IC50 values > 100 µM were considered inactive; details: for IC50: Homo sapiens, MRC5, 72 h, MRC-5 normal lung fibroblasts, 3 days treatment, MTT, read-out: IC50 ± SD, MRC-5
Protocol: (§1) All human cell lines used in this work were purchased from the American Type Culture Collection (ATCC, Manasas, VA, USA). […] Promyelocytic leukemia HL-60 cells (CCL-240) were grown in suspension in RPM1 medium containing 1 mM sodium pyruvate and 2.0 g/L sodium bicarbonate. All media were supplemented with 10% heat-inactivated FBS, 100 IU/mL penicillin and 100 µg/mL streptomycin. […] For the antiproliferative assay, adherent cells were plated at a density of 5 × 10^4 cells/mL and HL-60 cells at 30 × 10^4 cells/mL. Cells were seeded in 96-well plates (100 µL/well). One day after seeding, cells were treated with medium containing the compounds at concentrations ranging from 0 up to 100 µM during 3 days. The compounds were dissolved in DMSO (1% final concentration) and complete medium. Untreated cells (medium containing 1% DMSO) were used as 100% viability controls. […] Each concentration was tested in sextuplicate and experiments were repeated 2 times. Cell viability was determined by means of the MTT reduction assay at the end of the incubation with the products.

[2] = test system: gastric epithelial adenocarcinoma (AGS) cells; assay: Antiproliferative assay (MTT reduction), AGS; format: cell-based; details: Homo sapiens, 72 h, 3 days treatment, read-out: IC50 ± SD, AGS
Protocol: (§2) All human cell lines used in this work were purchased from the American Type Culture Collection (ATCC, Manasas, VA, USA). Normal lung MRC-5 fibroblasts (CCL-171), SK-MES-1 lung cancer cells (HTB-58) and J82 bladder carcinoma cells (HTB-1) were grown as monolayers in minimum essential Eagle medium (MEM) with Earles’s salts, 2 mM L-glutamine and 1.5 g/L sodium bicarbonate. Gastric adenocarcinoma AGS cells (CRL-1739) were grown as monolayers in Ham F-12 medium containing 1 mM L-glutamine and 1.5 g/L sodium bicarbonate. Promyelocytic leukemia HL-60 cells (CCL-240) were grown in suspension in RPM1 medium containing 1 mM sodium pyruvate and 2.0 g/L sodium bicarbonate. All media were supplemented with 10% heat-inactivated FBS, 100 IU/mL penicillin and 100 µg/mL streptomycin. Cells were grown in a humidified incubator with 5% CO2 in air at 37 °C. For the antiproliferative assay, adherent cells were plated at a density of 5 × 10^4 cells/mL and HL-60 cells at 30 × 10^4 cells/mL. Cells were seeded in 96-well plates (100 µL/well). One day after seeding, cells were treated with medium containing the compounds at concentrations ranging from 0 up to 100 µM during 3 days. The compounds were dissolved in DMSO (1% final concentration) and complete medium. Untreated cells (medium containing 1% DMSO) were used as 100% viability controls. […] Each concentration was tested in sextuplicate and experiments were repeated 2 times. Cell viability was determined by means of the MTT reduction assay at the end of the incubation with the products. The results were transformed to percentage of controls and the IC50 values were graphically obtained from the dose-response curves.

[3] = test system: lung cancer (SK-MES-1) cells; assay: Antiproliferative assay (MTT reduction), SK-MES-1; format: cell-based; details: Homo sapiens, 72 h, SK-MES-1 lung cancer cells, 3 days treatment, read-out: IC50 ± SD, SK-MES-1
Protocol: as §1

[4] = test system: bladder carcinoma (J82) cells; assay: Antiproliferative assay (MTT reduction), J82; format: cell-based; details: Homo sapiens, 72 h, 3 days treatment, read-out: IC50 ± SD, J82
Protocol: as §2

[5] = test system: promyelocytic leukemia (HL-60) cells; assay: Antiproliferative assay (MTT reduction), HL-60; format: cell-based; details: Homo sapiens, 72 h, HL-60 promyelocytic leukemia cells, 3 days treatment, read-out: IC50 ± SD, HL-60
Protocol: as §1

[6] = test system: MRC-5, AGS, HL-60, SK-MES-1 and J82 cells; assay: Antiproliferative assay (MTT reduction), all cell lines together; format: cell-based, human; set-up: key to Antiproliferative activity in words, all cell lines: IC50 values > 100 µM were considered inactive; details: SK-MES-1, J82 and HL-60; for IC50: Homo sapiens, range over MRC-5, AGS; for Antiproliferative activity in words, all cell lines: MRC-5, AGS, up to 100 µM
Protocol: as §2

Compound	IC50 [1] [µM]	IC50 [2] [µM]	IC50 [3] [µM]	IC50 [4] [µM]	IC50 [5] [µM]	IC50 [6] [µM]	melting point [°C]	Antiproliferative activity in words, all cell lines [6]	Antiproliferative activity in words, MRC-5 ([1]; MRC-5 cells, up to 100 µM)
C#CCCC(=O)O[C@H]1CC[C@@]2(C)C(CC[C@]3(C)C2CC=C2[C@@H]4CC(C)(C)CC[C@]4(C(=O)O)CC[C@]23C)C1(C)C (stereo partly shown) [Compound 1]	21.3 ± 0.9	19.1 ± 1	22.4 ± 1.9	23.1 ± 1.6	19.6 ± 0.1	19.6 to 23.1	235	–	–
C#CCCC(=O)O[C@H]1CC[C@@]2(C)C(CC[C@]3(C)C2CC=C2[C@@H]4CC(C)(C)CC[C@]4(C(=O)OC)CC[C@]23C)C1(C)C (stereo partly shown) [Compound 2]	> 100	> 100	> 100	> 100	> 100	–	173	inactive	–
C#CCCCC(=O)O[C@H]1CC[C@@]2(C)C(CC[C@]3(C)C2CC=C2[C@@H]4CC(C)(C)CC[C@]4(C(=O)O)CC[C@]23C)C1(C)C (stereo partly shown) [Compound 3]	14.1 ± 1.2	22.1 ± 1.5	23.4 ± 1.8	56.2 ± 4.3	22.4 ± 0.1	14.1 to 56.2	212	–	–
C#CCCCC(=O)O[C@H]1CC[C@@]2(C)C(CC[C@]3(C)C2CC=C2[C@@H]4CC(C)(C)CC[C@]4(C(=O)OC)CC[C@]23C)C1(C)C (stereo partly shown) [Compound 4]	> 100	> 100	> 100	> 100	> 100	–	176	inactive	–
CC1(C)CC[C@]2(C(=O)O)CC[C@]3(C)C(=CCC4[C@@]5(C)CC[C@H](OC(=O)CCc6cn(-c7ccccc7)nn6)C(C)(C)C5CC[C@]43C)[C@@H]2C1 (stereo partly shown) [Compound 5]	> 100	> 100	> 100	> 100	> 100	–	–	–	–
COC(=O)[C@]12CCC(C)(C)C[C@H]1C1=CCC3[C@@]4(C)CC[C@H](OC(=O)CCc5cn(-c6ccccc6)nn5)C(C)(C)C4CC[C@@]3(C)[C@]1(C)CC2 (stereo partly shown) [Compound 6]	> 100	> 100	> 100	> 100	> 100	–	–	–	–
COc1ccc(-n2cc(CCC(=O)O[C@H]3CC[C@@]4(C)C(CC[C@]5(C)C4CC=C4[C@@H]6CC(C)(C)CC[C@]6(C(=O)O)CC[C@]45C)C3(C)C)nn2)cc1 (stereo partly shown) [Compound 7]	> 100	95.1 ± 5.8	> 100	> 100	> 100	–	210	–	–
COC(=O)[C@]12CCC(C)(C)C[C@H]1C1=CCC3[C@@]4(C)CC[C@H](OC(=O)CCc5cn(-c6ccc(OC)cc6)nn5)C(C)(C)C4CC[C@@]3(C)[C@]1(C)CC2 (stereo partly shown) [Compound 8]	> 100	> 100	> 100	> 100	> 100	–	–	–	–
CC1(C)CC[C@]2(C(=O)O)CC[C@]3(C)C(=CCC4[C@@]5(C)CC[C@H](OC(=O)CCc6cn(Cc7ccc(Cl)cc7)nn6)C(C)(C)C5CC[C@]43C)[C@@H]2C1 (stereo partly shown) [Compound 9]	> 100	8.9 ± 0.4	50.4 ± 3.5	35.4 ± 2.8	35.8 ± 4.1	–	184	–	–
COC(=O)[C@]12CCC(C)(C)C[C@H]1C1=CCC3[C@@]4(C)CC[C@H](OC(=O)CCc5cn(Cc6ccc(Cl)cc6)nn5)C(C)(C)C4CC[C@@]3(C)[C@]1(C)CC2 (stereo partly shown) [Compound 10]	> 100	> 100	> 100	> 100	> 100	–	–	activity was lost	–
COC(=O)[C@]12CCC(C)(C)C[C@H]1C1=CCC3[C@@]4(C)CC[C@H](OC(=O)CCc5cn(S(=O)(=O)c6ccc(C)cc6)nn5)C(C)(C)C4CC[C@@]3(C)[C@]1(C)CC2 (stereo partly shown) [Compound 12]	76 ± 3.8	63 ± 3.8	76.3 ± 5.1	> 100	22.4 ± 1.8	–	–	–	–
CC1(C)CC[C@]2(C(=O)O)CC[C@]3(C)C(=CCC4[C@@]5(C)CC[C@H](OC(=O)CCc6cn(CSc7ccccc7)nn6)C(C)(C)C5CC[C@]43C)[C@@H]2C1 (stereo partly shown) [Compound 13]	> 100	31.6 ± 1.6	65.5 ± 4.4	> 100	18.1 ± 1.6	–	170	–	inactive
COC(=O)[C@]12CCC(C)(C)C[C@H]1C1=CCC3[C@@]4(C)CC[C@H](OC(=O)CCc5cn(CSc6ccccc6)nn5)C(C)(C)C4CC[C@@]3(C)[C@]1(C)CC2 (stereo partly shown) [Compound 14]	> 100	> 100	> 100	> 100	> 100	–	195	–	–
COC(=O)[C@]12CCC(C)(C)C[C@H]1C1=CCC3[C@@]4(C)CC[C@H](OC(=O)CCCc5cn(S(=O)(=O)c6ccc(C)cc6)nn5)C(C)(C)C4CC[C@@]3(C)[C@]1(C)CC2 (stereo partly shown) [Compound 16]	> 100	> 100	> 100	> 100	84.2 ± 7.5	–	–	–	–
CC1(C)CC[C@]2(C(=O)O)CC[C@]3(C)C(=CCC4[C@@]5(C)CC[C@H](OC(=O)CCCc6cn(CSc7ccccc7)nn6)C(C)(C)C5CC[C@]43C)[C@@H]2C1 (stereo partly shown) [Compound 17]	46.7 ± 2.4	23.7 ± 1.4	61.8 ± 3.1	> 100	11.8 ± 0.9	–	198	–	–
COC(=O)[C@]12CCC(C)(C)C[C@H]1C1=CCC3[C@@]4(C)CC[C@H](OC(=O)CCCc5cn(CSc6ccccc6)nn5)C(C)(C)C4CC[C@@]3(C)[C@]1(C)CC2 (stereo partly shown) [Compound 18]	> 100	> 100	> 100	> 100	> 100	–	–	–	–
COc1cc([C@@H]2c3cc4c(cc3[C@@H](O[C@@H]3O[C@@H]5CO[C@@H](C)O[C@H]5[C@H](O)[C@H]3O)[C@H]3COC(=O)[C@H]23)OCO4)cc(OC)c1O [Etoposide, reference compound]	–	0.58 ± 0.02	–	3.49 ± 0.16	–	–	–	–	–
